How the values were obtained:
Bcl-xL = assay: Expression of Stat5 target gene Bcl-xL in CWR22Rv1 and LNCaP cells (immunoblot); format: cell-based, human; settings: 25 μM over time
Description: Exponentially growing CWR22Rv1 and LNCaP cells were treated with N6BAP or the control compound C5 (Ctrl) for 48 h at concentrations indicated in FIG. 6 and whole cell lysates were immunoblotted with anti-cyclinD1 mAb. Exponentially growing CWR22Rv1 and LNCaP cells were treated with N6BAP or control compound C5 (Ctrl) at 25 μM for the periods of time indicated in FIG. 6, and whole cell lysates were immunoblotted with anti-cyclinD1 mAb or anti-Bcl-X1 pAb. Cell pellets were solubilized in lysis buffer [10 mM Tris-HCl (pH 7.6), 5 mM EDTA, 50 mM sodium chloride, 30 mM sodium pyrophosphate, 50 mM sodium fluoride, 1 mM sodium orthovanadate, 1% Triton X-100, 1 mM phenylmethylsulfonyl fluoride, 5 μg/ml aprotinin, 1 μg/ml pepstatin A, and […]], rotated end-over-end at 4° C. for 60 min, and insoluble material was pelleted at 12,000×g for 30 min at 4° C. The protein concentrations of clarified cell lysates were determined by simplified Bradford method (Bio-Rad Laboratories, Hercules, Calif.). The following primary antibodies were used for Western blotting, at the following concentrations: anti-β-actin pAb (1:4,000; Sigma), anti-cyclin D1 mAb (1:1000, BD Biosciences) and Bcl-xL pAb (1:1000, Cell Signaling, Danvers, Mass.).

prostate cancer cells = assay: Induction of apoptotic death of prostate cancer cells (summary of FIGS. 9A-9E); format: cell-based, human
Description: CWR22Rv1 prostate cancer cells were treated with N6BAP or the control compound C5 (Ctrl) at 25 μM concentration or vehicle for 24 h. Following trypan blue exclusion, the attached viable vs. de-attached dead cells were counted. […] The bars indicate mean±SD of triplicate wells. In another assay, CWR22Rv1, LNCaP and DU145 cells were treated with N6BAP, the control compound C5 (Ctrl) or vehicle at indicated concentrations. The fraction of alive cells was determined by MTS ([…]) metabolic activity assay (CellTiter 96® AQueous Assay kit). The results are shown in FIGS. 9C, 9D and 9E, respectively.

Stat5a/b = assay: Clinical prostate cancers ex vivo in explant organ cultures: nuclear Stat5a/b immunohistochemistry; format: cell-based, human; settings: 7 days, N6BAP 5, 10, 25, 50 and 100 μM; C5 100 m
Description: The specimens comprised de-identified excess tissue obtained after the completion of pathology diagnosis. A zero-sample prior to organ culture was formalin-fixed for each individual prostate cancer for the analysis of the nuclear Stat5a/b status. The prostate organ cultures were performed as described earlier (Ahonen et al., Endocrinology (2002), 143:228-238). Briefly, prostate cancer tissue was cut into approximately 1 mm^3 pieces in a plain culture medium and transferred onto lens papers lying on stainless steel grids in petri dishes. The medium was phenol-free medium 199 with Earle's salts (Sigma) containing dialyzed 5% fetal calf serum, G-penicillin (100 IU/ml), streptomycin sulfate ([…]), and glutamine (100 μg/ml). […] Tissue explants were cultured in a medium containing the N6BAP or control compound C5 at indicated concentrations (C5: […]; N6BAP: 5, 10, 25, 50 and 100 μM) 7 days, after which the explants were fixed in formalin and analyzed for Stat5a/b activation and viability of prostate cancer epithelial compartment. Viability of the epithelial cells in the prostate cancer explants at the end of the cultures were scored by counting the viable epithelial cells per explant.
Nuclear Stat5a/b indexes were determined by counting the Stat5-positive cells per 500 epithelial cells in the cultured explants in each treatment group.

Stat5a = molecular target: T1, Stat5a (Homo sapiens, UniProt P42229); assay: Stat5a translocation to the nucleus in PC3 cells (immunofluorescence); format: cell-based; design: expressed in transfected cells; host or cells: PC-3 (human prostate cancer cell line); settings: 2 hours pretreatment, 10 nmol/L Prl 30 minutes
T1 sequence (P42229 1-794): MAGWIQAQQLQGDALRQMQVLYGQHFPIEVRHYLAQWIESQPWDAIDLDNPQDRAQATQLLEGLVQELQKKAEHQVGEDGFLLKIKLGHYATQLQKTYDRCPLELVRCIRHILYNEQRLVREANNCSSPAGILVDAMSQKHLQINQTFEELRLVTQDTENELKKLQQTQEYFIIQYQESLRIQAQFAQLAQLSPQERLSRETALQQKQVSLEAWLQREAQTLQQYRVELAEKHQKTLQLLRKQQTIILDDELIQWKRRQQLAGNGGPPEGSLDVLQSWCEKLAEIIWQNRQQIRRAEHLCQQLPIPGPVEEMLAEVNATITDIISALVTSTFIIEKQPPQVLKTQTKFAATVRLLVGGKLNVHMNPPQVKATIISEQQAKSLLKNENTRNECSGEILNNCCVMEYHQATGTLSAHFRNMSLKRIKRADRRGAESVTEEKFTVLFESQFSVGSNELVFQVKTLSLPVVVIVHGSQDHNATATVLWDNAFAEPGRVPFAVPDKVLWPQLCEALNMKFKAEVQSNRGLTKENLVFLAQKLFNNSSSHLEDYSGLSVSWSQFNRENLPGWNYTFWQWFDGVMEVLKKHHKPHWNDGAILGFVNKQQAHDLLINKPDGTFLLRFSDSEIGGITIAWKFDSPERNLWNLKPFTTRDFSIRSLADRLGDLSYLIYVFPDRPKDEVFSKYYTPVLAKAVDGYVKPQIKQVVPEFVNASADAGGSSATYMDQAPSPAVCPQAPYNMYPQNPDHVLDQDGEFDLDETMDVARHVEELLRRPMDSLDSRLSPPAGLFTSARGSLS
Description: PC3 cells were infected with Ade-Stat5a and Ade-PrlR at MOI 5 for each adenovirus. Cells were pretreated with N6BAP or vehicle (DMSO) for 2 hours and then stimulated with 10 nmol/L Prl for 30 minutes. Cells were fixed with 100% methanol for 15 min and subsequently permeabilized with 0.1% Triton X-100 in PBS (pH 7.4). After blocking with 2% bovine serum albumin in PBS, cells were incubated with an antibody specific for Stat5a or Stat5b at 4° C. for 2 hours. Cells were then washed with PBS and incubated with FITC-conjugated secondary antibody (Jackson ImmunoResearch) at room temperature for 1 hour. The images were taken by using an inverted fluorescence microscopy (Carl Zeiss). […] It should be noted the drug effect in this study was not due to cell apoptosis induction, as the treatment time was only 2 hours. Treatment of at least 48 hours is required for the compound to induce prostate cancer cell apoptosis.

SMILES: O=P(O)(O)OC[C@H]1O[C@@H](n2cnc3c(NCc4ccccc4)ncnc32)[C@H](O)[C@@H]1O [N6BAP, N^6-benzyladenosine-5′-monophosphate]
- expression of Bcl-xL (Bcl-xL): down-regulates expression
- treatment time required to induce prostate cancer cell apoptosis (prostate cancer cells): at least 48 hours
- apoptotic death of prostate cancer cells (prostate cancer cells; CWR22Rv1, LNCaP, DU145): induces apoptotic death of prostate cancer cells
- nuclear Stat5 expression in explant organ cultures (Stat5a/b): reduced the levels of nuclear Stat5 expression
- translocation of Stat5a to the nucleus (Stat5a): blocks translocation of Stat5a to the nucleus

From patent publication US20160038526A1, “TREATMENT OF PROSTATE CANCER” (THOMAS JEFFERSON UNIVERSITY, priority 2012, published 2016)
